According to patent US20240058450A1, “BCL-XL Inhibitory Compounds Having Low Cell Permeability and Antibody Drug Conjugates Including the Same” (AbbVie Inc., priority 2014, published 2024):
Like-named read-outs stand apart in the source and are kept apart here.

Legend:
[1] = test system: Molt-4 human acute lymphoblastic leukemia cells; assay: Molt-4 cell viability assay (CellTiter-Glo, 48 hours, 10% HS); assay type: cell-based; conditions: Homo sapiens, MOLT-4, 48 h, non-permeabilized cells
Method: The ability of Bcl-xL inhibitors that are able to traverse cell membranes to inhibit Bcl-xL can be determined in cell-based killing assays using a variety of cell lines and mouse tumor models. For example, their activity on cell viability can be assessed on a panel of cultured tumorigenic and non-tumorigenic cell lines, as well as primary mouse or human cell populations.
In one exemplary set of conditions, Molt-4 (ATCC, Manassas, VA) human acute lymphoblastic leukemia cells were plated 12,500 cells per well in 384-well tissue culture plates (Corning, Corning, NY) in a total volume of 25 μL tissue culture medium supplemented with 10% human serum (Sigma-Aldrich, St. Louis, MO) and treated with a 3-fold serial dilution of the compounds of interest from 10 μM to 0.0005 μM. Each concentration was tested in duplicate at least 3 separate times. The number of viable cells following 48 hours of compound treatment was determined using the CellTiter-Glo®, Luminescent Cell Viability Assay according to the manufacturer's recommendations (Promega Corp., Madison, WI). Compounds were tested in the presence of 10% HS.

[2] = target: Bcl-xL (Homo sapiens, UniProt Q07817); assay: Time Resolved-Fluorescence Resonance Energy Transfer (TR-FRET) binding assay, competition with probe F-Bak
Method: Tb-anti-GST antibody was purchased from Invitrogen (Catalog No. PV4216).
For the assay, test compounds were serially diluted in DMSO starting at 50 μM (2× starting concentration; 10% DMSO) and 10 μL transferred into a 384-well plate. 10 μL of a protein/probe/antibody mix was then added to each well at final concentrations listed below:
The samples were then mixed on a shaker for 1 minute and incubated for an additional 2 hours at room temperature. For each assay plate, a probe/antibody and protein/antibody/probe mixture were included as a negative and a positive control, respectively. Fluorescence was measured on the Envision (Perkin Elmer) using a 340/35 nm excitation filter and 520/525 (F-Bak) and 495/510 nm (Tb-labeled anti-his antibody) emission filters. Dissociation constants (Ki) were determined using Wang's equation (Wang, 1995, FEBS Lett. 360:111-114). The TR-FRET assay can be performed in the presence of varying concentrations of human serum (HS) or fetal bovine serum (FBS). Compounds were tested both without HS and in the presence of 1% HS.

[3] = in the presence of 1% HS, read-out: Bcl-xL Binding Ki (nM, 1% HS)
[4] = without HS, read-out: Bcl-xL Binding Ki

Bcl-xL, sequence (Q07817 whole entry): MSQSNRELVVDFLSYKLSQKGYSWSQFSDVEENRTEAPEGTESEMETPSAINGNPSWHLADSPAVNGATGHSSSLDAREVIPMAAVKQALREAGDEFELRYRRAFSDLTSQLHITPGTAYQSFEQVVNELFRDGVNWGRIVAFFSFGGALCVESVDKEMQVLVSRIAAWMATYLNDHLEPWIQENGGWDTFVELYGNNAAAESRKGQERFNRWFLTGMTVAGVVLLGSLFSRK

Cc1c(-c2ccc(N3CCc4cccc(C(=O)Nc5nc6ccccc6s5)c4C3)nc2C(=O)O)cnn1CC12CC3(C)CC(C)(C1)CC(OCCNC1CCN(CC(=O)O)CC1)(C3)C2 [Example 1.28, 6-[8-(1,3-benzothiazol-2-ylcarbamoyl)-3,4-dihydroisoquinolin-2 (1H)-yl]-3-(1-{[3-(2-{[1-(carboxymethyl)piperidin-4-yl]amino}ethoxy)-5,7-dimethyltricyclo[3.3.1.1^3,7]dec-1-yl]methyl}-5-methyl-1H-pyrazol-4-yl}pyridine-2-carboxylic acid]
EC50 [1]: 568 nM
Ki [2, 3]: 0.046 nM
Ki [2, 4]: < 0.001 nM

Cc1c(-c2ccc(N3CCc4cccc(C(=O)Nc5nc6ccccc6s5)c4C3)nc2C(=O)O)cnn1CC12CC3(C)CC(C)(C1)CC(OCCN(CCS(=O)(=O)O)C1CCNCC1)(C3)C2 [Example 1.30, 6-[8-(1,3-benzothiazol-2-ylcarbamoyl)-3,4-dihydroisoquinolin-2 (1H)-yl]-3-{1-[(3,5-dimethyl-7-{2-[piperidin-4-yl(2-sulfoethyl)amino]ethoxy}tricyclo[3.3.1.1^3,7]dec-1-yl)methyl]-5-methyl-1H-pyrazol-4-yl}pyridine-2-carboxylic acid]
EC50 [1]: 184 nM
Ki [2, 3]: 0.12 nM
Ki [2, 4]: < 0.001 nM

CNCCOC12CC3(C)CC(C)(CC(Cn4ncc(-c5ccc(N6CCc7c(OCCCP(=O)(O)O)ccc(C(=O)Nc8nc9ccccc9s8)c7C6)nc5C(=O)O)c4C)(C3)C1)C2 [Example 1.31, 6-[8-(1,3-benzothiazol-2-ylcarbamoyl)-5-(3-phosphonopropoxy)-3,4-dihydroisoquinolin-2 (1H)-yl]-3-[1-({3,5-dimethyl-7-[2-(methylamino)ethoxy]tricyclo[3.3.1.1^3,7]dec-1-yl}methyl)-5-methyl-1H-pyrazol-4-yl]pyridine-2-carboxylic acid]
EC50 [1]: 446 nM
Ki [2, 3]: 0.055 nM
Ki [2, 4]: < 0.001 nM

Cc1c(-c2ccc(N3CCc4cccc(C(=O)Nc5nc6ccccc6s5)c4C3)nc2C(=O)O)cnn1CC12CC3(C)CC(C)(C1)CC(OCCN(CCN)CCS(=O)(=O)O)(C3)C2 [Example 1.33, 3-{1-[(3-{2-[(2-aminoethyl)(2-sulfoethyl)amino]ethoxy}-5,7-dimethyltricyclo[3.3.1.1^3,7]dec-1-yl)methyl]-5-methyl-1H-pyrazol-4-yl}-6-[8-(1,3-benzothiazol-2-ylcarbamoyl)-3,4-dihydroisoquinolin-2 (1H)-yl]pyridine-2-carboxylic acid]
EC50 [1]: 319 nM
Ki [2, 3]: 0.12 nM
Ki [2, 4]: < 0.001 nM

CNCCOC12CC3(C)CC(C)(CC(Cn4ncc(-c5ccc(N6CCc7c(OCCN)ccc(C(=O)Nc8nc9ccccc9s8)c7C6)nc5C(=O)O)c4C)(C3)C1)C2 [Example 1.34, 6-[5-(2-aminoethoxy)-8-(1,3-benzothiazol-2-ylcarbamoyl)-3,4-dihydroisoquinolin-2 (1H)-yl]-3-[1-({3,5-dimethyl-7-[2-(methylamino)ethoxy]tricyclo[3.3.1.1^3,7]dec-1-yl}methyl)-5-methyl-1H-pyrazol-4-yl]pyridine-2-carboxylic acid]
EC50 [1]: 87.7 nM
Ki [2, 3]: 0.031 nM

Cc1c(-c2ccc(-c3ccc4cccc(C(=O)Nc5nc6ccccc6s5)c4c3)nc2C(=O)O)cnn1CC12CC3(C)CC(C)(C1)CC(OCCNCCCS(=O)(=O)O)(C3)C2 [Example 1.35, 6-[8-(1,3-benzothiazol-2-ylcarbamoyl)naphthalen-2-yl]-3-{1-[(3,5-dimethyl-7-{2-[(3-sulfopropyl)amino]ethoxy}tricyclo[3.3.1.1^3,7]dec-1-yl)methyl]-5-methyl-1H-pyrazol-4-yl}pyridine-2-carboxylic acid]
EC50 [1]: 238 nM
Ki [2, 3]: 0.439 nM
Ki [2, 4]: < 0.001 nM

Cc1c(-c2ccc(N3CCc4cccc(C(=O)Nc5nc6ccccc6s5)c4C3)nc2C(=O)O)cnn1CC12CC3(C)CC(C)(C1)CC(OCCN(CCC(=O)O)C1CCNCC1)(C3)C2 [Example 1.36, 6-[8-(1,3-benzothiazol-2-ylcarbamoyl)-3,4-dihydroisoquinolin-2 (1H)-yl]-3-{1-[(3-{2-[(2-carboxyethyl)(piperidin-4-yl)amino]ethoxy}-5,7-dimethyltricyclo[3.3.1.1^3,7]dec-1-yl)methyl]-5-methyl-1H-pyrazol-4-yl}pyridine-2-carboxylic acid]
EC50 [1]: 405 nM
Ki [2, 3]: 0.0635 nM
Ki [2, 4]: < 0.001 nM

Cc1c(-c2ccc(N3CCc4cccc(C(=O)Nc5nc6ccccc6s5)c4C3)nc2C(=O)O)cnn1CC12CC3(C)CC(C)(C1)CC(OCCN(CCS(=O)(=O)O)C(=O)[C@@H](N)CS(=O)(=O)O)(C3)C2 [Example 1.37, 6-[8-(1,3-benzothiazol-2-ylcarbamoyl)-3,4-dihydroisoquinolin-2 (1H)-yl]-3-{1-[(3,5-dimethyl-7-{2-[(3-sulfo-L-alanyl)(2-sulfoethyl)amino]ethoxy}tricyclo[3.3.1.1^3,7]dec-1-yl)methyl]-5-methyl-1H-pyrazol-4-yl}pyridine-2-carboxylic acid]
EC50 [1]: 805 nM
Ki [2, 3]: 0.294 nM
Ki [2, 4]: < 0.001 nM

Cc1c(-c2ccc(N3CCc4cccc(C(=O)Nc5nc6cccnc6s5)c4C3)nc2C(=O)O)cnn1CC12CC3(C)CC(C)(C1)CC(OCCNCCCP(=O)(O)O)(C3)C2 [Example 1.40, 3-{1-[(3,5-dimethyl-7-{2-[(3-phosphonopropyl)amino]ethoxy}tricyclo[3.3.1.1^3,7]dec-1-yl)methyl]-5-methyl-1H-pyrazol-4-yl}-6-[8-([1,3]thiazolo[5,4-b]pyridin-2-ylcarbamoyl)-3,4-dihydroisoquinolin-2 (1H)-yl]pyridine-2-carboxylic acid]
EC50 [1]: 6480 nM
Ki [2, 3]: 6.28 nM
Ki [2, 4]: < 0.001 nM

Cc1c(-c2ccc(N3CCc4cccc(C(=O)Nc5nc6ccccc6s5)c4C3)nc2C(=O)O)cnn1CC12CC3(C)CC(C)(C1)CC(OCCN(CCCC(=O)O)C1CCNCC1)(C3)C2 [Example 1.42, 6-[8-(1,3-benzothiazol-2-ylcarbamoyl)-3,4-dihydroisoquinolin-2 (1H)-yl]-3-{1-[(3-{2-[(3-carboxypropyl)(piperidin-4-yl)amino]ethoxy}-5,7-dimethyltricyclo[3.3.1.1^3,7]dec-1-yl)methyl]-5-methyl-1H-pyrazol-4-yl}pyridine-2-carboxylic acid]
EC50 [1]: 482 nM
Ki [2, 3]: 0.133 nM
Ki [2, 4]: < 0.001 nM

Cc1c(-c2ccc(-c3ccc4cccc(C(=O)Nc5nc6ccccc6s5)c4c3)nc2C(=O)O)cnn1CC12CC3(C)CC(C)(C1)CC(OCCNCCS(=O)(=O)O)(C3)C2 [Example 1.43, 6-[8-(1,3-benzothiazol-2-ylcarbamoyl)naphthalen-2-yl]-3-{1-[(3,5-dimethyl-7-{2-[(2-sulfoethyl)amino]ethoxy}tricyclo[3.3.1.1^3,7]dec-1-yl)methyl]-5-methyl-1H-pyrazol-4-yl}pyridine-2-carboxylic acid]
EC50 [1]: 185 nM
Ki [2, 3]: 0.86 nM
Ki [2, 4]: < 0.001 nM

Cc1c(-c2ccc(N3CCc4cccc(C(=O)Nc5nc6ccccc6s5)c4C3)nc2C(=O)O)cnn1CC12CC3(C)CC(C)(C1)CC(OCCN(CCNCCS(=O)(=O)O)CCS(=O)(=O)O)(C3)C2 [Example 1.48, 6-[8-(1,3-benzothiazol-2-ylcarbamoyl)-3,4-dihydroisoquinolin-2 (1H)-yl]-3-{1-[(3,5-dimethyl-7-{2-[(2-sulfoethyl){2-[(2-sulfoethyl)amino]ethyl}amino]ethoxy}tricyclo[3.3.1.1^3,7]dec-1-yl)methyl]-5-methyl-1H-pyrazol-4-yl}pyridine-2-carboxylic acid]
EC50 [1]: 692 nM
Ki [2, 3]: 0.497 nM
Ki [2, 4]: < 0.001 nM

Cc1c(-c2ccc(N3CCc4cccc(C(=O)Nc5nc6ncccc6s5)c4C3)nc2C(=O)O)cnn1CC12CC3(C)CC(C)(C1)CC(OCCN(CCCP(=O)(O)O)C1CCNCC1)(C3)C2 [Example 1.50, 3-{1-[(3,5-dimethyl-7-{2-[(3-phosphonopropyl)(piperidin-4-yl)amino]ethoxy)tricyclo[3.3.1.1^3,7]dec-1-yl)methyl]-5-methyl-1H-pyrazol-4-yl}-6-[8-([1,3]thiazolo[4,5-b]pyridin-2-ylcarbamoyl)-3,4-dihydroisoquinolin-2 (1H)-yl]pyridine-2-carboxylic acid]
EC50 [1]: 2770 nM
Ki [2, 3]: 0.051 nM
Ki [2, 4]: 0.0073 nM

Cc1c(-c2ccc(-c3ccc4c(c3)N(C(=O)Nc3nc5ccccc5s3)CCO4)nc2C(=O)O)cnn1CC12CC3(C)CC(C)(C1)CC(OCCNCCS(=O)(=O)O)(C3)C2 [Example 1.51, 6-[4-(1,3-benzothiazol-2-ylcarbamoyl)-3,4-dihydro-2H-1,4-benzoxazin-6-yl]-3-{1-[(3,5-dimethyl-7-{2-[(2-sulfoethyl)amino]ethoxy}tricyclo[3.3.1.1^3,7]dec-1-yl)methyl]-5-methyl-1H-pyrazol-4-yl}pyridine-2-carboxylic acid]
EC50 [1]: 555 nM
Ki [2, 3]: 0.17 nM
Ki [2, 4]: < 0.001 nM
